The source of these data is patent US20180208563A1, “THERMOD[…] CRYSTAL MODIFICATION OF 2-CHLORO-3-(METHYLSULFANYL)-N-(1-METHYL-1H-TETRAZOL-5-YL)-4-(TRIFLUOROMETHYL)BENZAMIDE” (BAYER CROPSCIENCE AKTIENGESELLSCHAFT, priority 2015, published 2018).

Data set [1] can be described thus: Testing in practice of suspension formulations (crystal growth). The conditions noted are these: suspension formulations with finely ground solid benzamide; spontaneously or over a longer period. In kind it is physicochemical. The source says:
The benzamide known for example from WO 2012/028579 A1 (example No. 4-638 in table 4 therein) has herbicidal properties and is suitable for the production of crop protection compositions which can be employed for weed control. However, it has been shown that the benzamide preparable according to the disclosure of WO 2012/028579 A1 is not suitable for the production of user-friendly administration forms. User-friendly administration forms are, for example, suspension formulations in which the benzamide is present finely ground in solid form. […] The crystal growth can occur spontaneously or over a longer period and cannot be predicted.

Data set [2] in a line: Stability tests: storage of an oil dispersion. In kind it is physicochemical. The settings on record: after several weeks of storage, compared to an oil dispersion of the benzamide prepared according to WO 2012/028579 A1.

Molecules are shown by their SMILES.

For the molecule `CSc1c(C(F)(F)F)ccc(C(=O)Nc2nnnn2C)c1Cl` [2-chloro-3-(methylsulfanyl)-N-(1-methyl-1H-tetrazol-5-yl)-4-(trifluoromethyl)benzamide], the “crystal growth, clumping and precipitation in suspension formulations” value in data set [1] is “crystal growth in suspension formulations and consequently to clumping and precipitation”. With `CSc1c(C(F)(F)F)ccc(C(=O)Nc2nnnn2C)c1Cl` [crystal modification II, 2-chloro-3-(methylsulfanyl)-N-(1-methyl-1H-tetrazol-5-yl)-4-(trifluoromethyl)benzamide], the “signs of clumping and precipitation on storage” value in data set [2] was “no signs of clumping and precipitation”.
